Test results from patent US20100016225A1, “CONJUGATES COMPRISED OF POLYMER AND HIV gp-41-DERIVED PEPTIDES AND THEIR USE IN THERAPY” (Trimeris, Inc., priority 2002, published 2010).

Legend:
HIV-1 T20R = type: cell-based; conditions: T20-resistant clinical isolate, Table 2
From the text: (§1) The infectivity assays score for reduction of infectious virus titer employing the indicator cell lines MAGI or the CCR5 expressing derivative cMAGI. Both cell lines exploit the ability of HIV-1 that to transactivate the expression of a β-galactosidase reporter gene driven by the HIV-LTR. The β-gal reporter has been modified to localize in the nucleus and can be detected with the X-gal substrate as intense nuclear staining within a few days of infection. The number of stained nuclei can thus be interpreted as equal to the number of infectious virions in the challenge inoculum if there is only one round of infection prior to staining. […] The peptide (in the respective dilution) was added to the CMAGI or MAGI cells, followed by the virus inocula; and 24 hours later, an inhibitor of infection and cell-cell fusion (e.g., T20) was added to prevent secondary rounds of HIV infection and cell-cell virus spread. The cells were cultured for 2 more days, and then fixed and stained with the X-gal substrate to detect HIV-infected cells. The number of infected cells for each control and peptide dilution was determined with the CCD-imager, and then the IC50 and IC90 were calculated (expressed in μg/ml).
In this first example of antiviral potency, two clinical isolates of HIV were obtained from the same HIV-infected individual.
Using the methods taught in Example 1 herein, additional conjugates were produced by varying the polymer, the terminus of the synthetic peptide which is operably bound to polymer, and the reactive functionality used for operably binding synthetic peptide to polymer. Two molecules of synthetic peptide (e.g. SEQ ID NO:4) were operably bound to polymer.

IIIB/CEM4 = type: cell-based, HIV; conditions: virus IIIB/CEM4
From the text: (§2) Illustrated in this example is the unexpected result of antiviral potency using the conjugates according to the present invention. […] In determining antiviral activity (e.g., one measure being the ability to inhibit transmission of HIV to a target cell) of the conjugates according to the present invention, used was an in vitro assay which has been shown, by data generated using synthetic peptides derived from either of the HR regions of HIV gp41, to be predictive of antiviral activity observed in vivo.
(§3) The infectivity assays score for reduction of infectious virus titer employing the indicator cell lines MAGI or the CCR5 expressing derivative cMAGI. Both cell lines exploit the ability of HIV-1 that to transactivate the expression of a β-galactosidase reporter gene driven by the HIV-LTR. The β-gal reporter has been modified to localize in the nucleus and can be detected with the X-gal substrate as intense nuclear staining within a few days of infection. The number of stained nuclei can thus be interpreted as equal to the number of infectious virions in the challenge inoculum if there is only one round of infection prior to staining. Infected cells are enumerated using a CCD-imager and both primary and laboratory adapted isolates show a linear relationship between virus input and the number of infected cells visualized by the imager. […] Peptides tested for antiviral activity were diluted into various concentrations, and tested in duplicate or triplicate against an HIV inoculum adjusted to yield approximately 1500-2000 infected cells/well of a 48 well microtiter plate. The peptide (in the respective dilution) was added to the CMAGI or MAGI cells, followed by the virus inocula; and 24 hours later, an inhibitor of infection and cell-cell fusion (e.g., T20) was added to prevent secondary rounds of HIV infection and cell-cell virus spread. The cells were cultured for 2 more days, and then fixed and stained with the X-gal substrate to detect HIV-infected cells. The number of infected cells for each control and peptide dilution was determined with the CCD-imager, and then the IC50 and IC90 were calculated (expressed in μg/ml).
(§4) With reference to Table 4, IC50 and IC90 are expressed in μg/ml.

3′GIV/CEM4 = type: cell-based, HIV; conditions: virus 3′GIV/CEM4
From the text: as §2, §3, §4

SIM/CEM4 = type: cell-based, HIV; conditions: virus SIM/CEM4
From the text: as §2, §3, §4

HIV-1 T20S = type: cell-based; conditions: T20-sensitive clinical isolate, Table 2
From the text: as §2, §3
In this first example of antiviral potency, two clinical isolates of HIV were obtained from the same HIV-infected individual. A first isolate, hereby designated “HIV-1 T20S” for ease of description, was sensitive to the antiviral effect of T20 (SEQ ID NO:4) both in vitro and in vivo. […] The results, with the IC50 expressed in ng/ml, are illustrated in Table 2.
Using the methods taught in Example 1 herein, additional conjugates were produced by varying the polymer, the terminus of the synthetic peptide which is operably bound to polymer, and the reactive functionality used for operably binding synthetic peptide to polymer. Two molecules of synthetic peptide (e.g. SEQ ID NO:4) were operably bound to polymer. Such conjugates were then tested for antiviral activity against HIV isolates IIIB, and HIV-1 T20S & HIV-1 T20R (see Table 2 for HIV resistant strains), with the antiviral activity (IC50) expressed in μg/ml. The results for the various conjugates (Table 5, A-Q), terminus of synthetic peptide used for operably binding polymer (Table 5, C-terminus denoted as “C”, N-terminus denoted as “N”) or if an internal lysine was used (Table 5, “Lys 18”, signifying lysine as amino acid residue 18 in the amino acid sequence of the synthetic peptide), antiviral activity (IC50) against HIV-1 strain IIIB (Table 5, “IIIB”), antiviral activity (IC50) against HIV-1 T20S (Table 5, “T20S”) and antiviral activity (IC50) against HIV-1 T20R (Table 5, “T20R”), are illustrated in Table 5.

[1] = Bioavailability (circulating half-life) in cannulated mice, plasma fluorescence HPLC; type: in vivo; conditions: mouse, 10 mg/kg
Procedure: It is important to note that standard animal model for determining bioavailability has been correlated with the bioavailability of synthetic peptide in vivo in humans (as described in more detail in U.S. Pat. No. 6,258,782). […] A sample of blood was removed at predetermined time intervals (0, 15, 30 min and 1, 2, 4, 6, and 8 hours) and added to collection tubes containing anticoagulant (EDTA). Plasma was harvested from each of the collection tubes, and then subjected to analysis by fluorescence high pressure liquid chromatography (HPLC). In addition to sample dilutions, serial dilutions of dosing solution were performed in buffer as well as in plasma, and used to generate a standard curve relating peak area to known concentration of peptide. This curve was then used to calculate concentration of peptide in plasma taking into account all dilutions performed and quantity injected onto column.

HIV-1 T20R-B = type: cell-based; conditions: virus HIV-1 T20R-B
From the text: as §1

HIV-1 T20R-A = type: cell-based; conditions: virus HIV-1 T20R-A
From the text: as §2, §3
(§5) IC50 and IC90 are expressed in μg/ml.

HIV-1 T20S-A = type: cell-based; conditions: virus HIV-1 T20S-A
From the text: as §2, §3, §5

HIV-1 T20S-C = type: cell-based; conditions: virus HIV-1 T20S-C
From the text: as §2, §3, §5

HIV-1 T20R-D = type: cell-based; conditions: virus HIV-1 T20R-D
From the text: as §2, §3, §5

HIV-1 T20S-B = type: cell-based; conditions: virus HIV-1 T20S-B
From the text: as §2, §3, §5

HIV-1 T20R-C = type: cell-based; conditions: virus HIV-1 T20R-C
From the text: as §2, §3, §5

HIV-1 T20S-D = type: cell-based; conditions: virus HIV-1 T20S-D
From the text: as §2, §3, §5

HIV = conditions: typical range in words; cited from earlier work

Q: With enfuvirtide as the substance, how does the “HIV-1 T20R: IC50” value (HIV-1 T20R) read?
A: The value was 1,211 ng/ml.

Q: And the IC50 (IIIB/CEM4)?
A: The IC50 was 0.007 µg/mL.

Q: And the IC90 (IIIB/CEM4)?
A: Its IC90 is 0.052 µg/mL.

Q: And the IC50 (3′GIV/CEM4)?
A: The IC50 was 0.008 µg/mL.

Q: And the IC90 (3′GIV/CEM4)?
A: Its IC90 is 0.050 µg/mL.

Q: And the IC50 (SIM/CEM4)?
A: The IC50 was 0.584 µg/mL.

Q: And the IC90 (SIM/CEM4)?
A: Its IC90 is 3.398 µg/mL.

Q: And the “HIV-1 T20S: IC50” value (HIV-1 T20S)?
A: Its value is 0.01 µg/mL.

Q: What about the half-life ([1]; cannulated mice, intravenous, read-out: t½ (converted)) of the same substance?
A: Its half-life is 1.6 h.

Q: And the AUC ([1]; iv)?
A: Its AUC is 158 µg·h/mL.

Q: What about the IC50 (HIV-1 T20R-B) of the same substance?
A: The IC50 was 1.898 µg/mL.

Q: And the IC90 (HIV-1 T20R-B)?
A: Its IC90 is 7.179 µg/mL.

Q: What about the IC50 (HIV-1 T20R-A) of the same substance?
A: Its IC50 is >5 µg/mL.

Q: And the IC90 (HIV-1 T20R-A)?
A: The IC90 was >5 µg/mL.

Q: What about the IC50 (HIV-1 T20S-A) of the same substance?
A: Its IC50 is 0.006 µg/mL.

Q: What about the IC90 (HIV-1 T20S-A) of the same substance?
A: Its IC90 is 0.078 µg/mL.

Q: And the IC50 (HIV-1 T20S-C)?
A: Its IC50 is 0.006 µg/mL.

Q: What about the IC90 (HIV-1 T20S-C) of the same substance?
A: The IC90 was 0.073 µg/mL.

Q: And the IC50 (HIV-1 T20R-D)?
A: Its IC50 is 2.039 µg/mL.

Q: And the IC90 (HIV-1 T20R-D)?
A: The IC90 was >5 µg/mL.

Q: What about the IC50 (HIV-1 T20S-B) of the same substance?
A: The IC50 was 0.029 µg/mL.

Q: And the IC90 (HIV-1 T20S-B)?
A: Its IC90 is 0.117 µg/mL.

Q: And the IC50 (HIV-1 T20R-C)?
A: The IC50 was 1.544 µg/mL.

Q: And the IC90 (HIV-1 T20R-C)?
A: Its IC90 is 6.285 µg/mL.

Q: What about the IC50 (HIV-1 T20S-D) of the same substance?
A: The IC50 was 0.018 µg/mL.

Q: And the IC90 (HIV-1 T20S-D)?
A: The IC90 was 0.208 µg/mL.

Q: What about the “50% effective concentration values (EC50), blocked infection of T cells” value (HIV) of the same substance?
A: Its value is “in the ng/ml range”.
